Test results reported in PubChem BioAssay AID1963872 (Molecular Pharmacology Branch, DTP, NCI, 2024).

System: KRAS patient-derived spheroids with HUVEC/MSC, viability
Assay: Anticancer human tumor 519858-162-T-J1-PDC patient-derived colon adenocarcinoma cell line growth inhibition [KRAS2]
Settings: for IC50: curve of first compound; for viability, T/C: stronger effect = lower value
Summary of the method: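 Combination screen of spheroid viability in tumor-cell co-cultures with endothelial (HUVEC) and mesenchymal stem cell stroma. Each agent was tested in half-log dilutions, topping at clinical Cmax or at 10 microM without a known Cmax.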

[1] = second compound 0.1 µM, first compound 0.0316 µM
[2] = second compound 0.1 µM, first compound 0.1 µM
[3] = second compound 0.1 µM, first compound 0.316 µM
[4] = second compound 0.1 µM, first compound 1 µM
[5] = second compound 0.1 µM, first compound 3.16 µM
[6] = second compound 0.1 µM, first compound 10 µM
[7] = second compound 0.316 µM, first compound 0.0316 µM
[8] = second compound 0.316 µM, first compound 0.1 µM
[9] = second compound 0.316 µM, first compound 0.316 µM
[10] = second compound 0.316 µM, first compound 1 µM
[11] = second compound 0.316 µM, first compound 3.16 µM
[12] = second compound 0.316 µM, first compound 10 µM
[13] = second compound 1 µM, first compound 0.0316 µM
[14] = second compound 1 µM, first compound 0.1 µM
[15] = second compound 1 µM, first compound 0.316 µM
[16] = second compound 1 µM, first compound 1 µM
[17] = second compound 1 µM, first compound 3.16 µM
[18] = second compound 1 µM, first compound 10 µM
[19] = second compound 3.16 µM, first compound 0.0316 µM
[20] = second compound 3.16 µM, first compound 0.1 µM
[21] = second compound 3.16 µM, first compound 0.316 µM
[22] = second compound 3.16 µM, first compound 1 µM
[23] = second compound 3.16 µM, first compound 3.16 µM
[24] = second compound 3.16 µM, first compound 10 µM
[25] = second compound 10 µM, first compound 0.0316 µM
[26] = second compound 10 µM, first compound 0.1 µM
[27] = second compound 10 µM, first compound 0.316 µM
[28] = second compound 10 µM, first compound 1 µM
[29] = second compound 10 µM, first compound 3.16 µM
[30] = second compound 10 µM, first compound 10 µM
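Also: compound exposure lasted seven days before readout.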
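For viability, T/C in this document: 100% = DMSO vehicle control viability.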

| SMILES | IC50 (second compound 0.1 µM) [µM] | IC50 (second compound 0.316 µM) [µM] | IC50 (second compound 1 µM) [µM] | IC50 (second compound 3.16 µM) [µM] | IC50 (second compound 10 µM) [µM] | viability, T/C [1] [%] | viability, T/C [2] [%] | viability, T/C [3] [%] | viability, T/C [4] [%] | viability, T/C [5] [%] | viability, T/C [6] [%] | viability, T/C [7] [%] | viability, T/C [8] [%] | viability, T/C [9] [%] | viability, T/C [13] [%] | viability, T/C [14] [%] | viability, T/C [19] [%] | viability, T/C [20] [%] | viability, T/C [25] [%] | viability, T/C [26] [%] | other results |
| --- | --- | --- | --- | --- | --- | --- | --- | --- | --- | --- | --- | --- | --- | --- | --- | --- | --- | --- | --- | --- | --- |
| O=C(c1cc(Cc2n[nH]c(=O)c3ccccc23)ccc1F)N1CCN(C(=O)C2CC2)CC1 + COc1cc2nc(C)nc(NC(C)c3cc(N)cc(C(F)(F)F)c3)c2cc1OC1CCOC1 | > 10 | > 10 | > 10 | > 10 | > 10 | 68.1 | 98.2 | 98.6 | 111 | 91 | 97.4 | 75.1 | 90 | 89.9 | 73.3 | 108 | 78.1 | 89.7 | 117 | 85.1 | viability, T/C [10]: 80.2%; viability, T/C [11]: 102%; viability, T/C [12]: 99.1%; viability, T/C [15]: 89.9%; viability, T/C [16]: 83.7%; viability, T/C [17]: 112%; viability, T/C [18]: 72.6%; viability, T/C [21]: 75.6%; viability, T/C [22]: 80.8%; viability, T/C [23]: 79.6%; viability, T/C [24]: 66.8%; viability, T/C [27]: 96.2%; viability, T/C [28]: 53.4%; viability, T/C [29]: 67.1%; viability, T/C [30]: 109% |
| Cn1ncnc1[C@H]1c2n[nH]c(=O)c3cc(F)cc(c23)N[C@@H]1c1ccc(F)cc1 + C=CC(=O)N1CCN(c2nc(=O)n(-c3c(C)ccnc3C(C)C)c3nc(-c4c(O)cccc4F)c(F)cc23)C(C)C1 | > 0.1 | > 0.1 | > 0.1 | > 0.1 | > 0.1 | 75.1 | 76.8 |  |  |  |  | 93 | 96.2 |  | 102 | 89.9 | 76.8 | 99.2 | 84.9 | 93.6 | viability, T/C (second compound 0.1 µM, first compound 0.000316 µM): 105%; viability, T/C (second compound 0.1 µM, first compound 0.001 µM): 89.7%; viability, T/C (second compound 0.1 µM, first compound 0.00316 µM): 106%; viability, T/C (second compound 0.1 µM, first compound 0.01 µM): 94.3%; viability, T/C (second compound 0.316 µM, first compound 0.000316 µM): 95.2%; viability, T/C (second compound 0.316 µM, first compound 0.001 µM): 83.4%; viability, T/C (second compound 0.316 µM, first compound 0.00316 µM): 94.8%; viability, T/C (second compound 0.316 µM, first compound 0.01 µM): 76%; viability, T/C (second compound 1 µM, first compound 0.000316 µM): 79.9%; viability, T/C (second compound 1 µM, first compound 0.001 µM): 71.8%; viability, T/C (second compound 1 µM, first compound 0.00316 µM): 94.1%; viability, T/C (second compound 1 µM, first compound 0.01 µM): 67.6%; viability, T/C (second compound 3.16 µM, first compound 0.000316 µM): 82%; viability, T/C (second compound 3.16 µM, first compound 0.001 µM): 85.1%; viability, T/C (second compound 3.16 µM, first compound 0.00316 µM): 88.3%; viability, T/C (second compound 3.16 µM, first compound 0.01 µM): 120%; viability, T/C (second compound 10 µM, first compound 0.000316 µM): 102%; viability, T/C (second compound 10 µM, first compound 0.001 µM): 75.4%; viability, T/C (second compound 10 µM, first compound 0.00316 µM): 80.5%; viability, T/C (second compound 10 µM, first compound 0.01 µM): 86.9% |
| Cn1nccc1Nc1nccc(-c2cc3c(s2)C(C)(C)N(CCN2CCOCC2)C3=O)n1 + C=CC(=O)N1CCN(c2nc(=O)n(-c3c(C)ccnc3C(C)C)c3nc(-c4c(O)cccc4F)c(F)cc23)C(C)C1 | 4.83 | > 10 | 5.46 | 1.93 | 1.52 | 69 | 106 | 81.6 | 83.5 | 56.5 | 38.9 | 123 | 79.5 | 77.9 | 76.4 | 94.9 | 82.3 | 106 | 91 | 72.3 | viability, T/C [10]: 70.4%; viability, T/C [11]: 74.2%; viability, T/C [12]: 42.5%; viability, T/C [15]: 63.8%; viability, T/C [16]: 80.3%; viability, T/C [17]: 59.4%; viability, T/C [18]: 37.9%; viability, T/C [21]: 70.5%; viability, T/C [22]: 55.2%; viability, T/C [23]: 51.9%; viability, T/C [24]: 29.3%; viability, T/C [27]: 58.9%; viability, T/C [28]: 51%; viability, T/C [29]: 49.3%; viability, T/C [30]: 43.6% |
